Experimental data taken from EP0039646A1, “1,4-Benzodioxines, processes for their preparation and their use in therapy” (RIOM LABORATOIRES- C.E.R.M. (Société Anonyme), priority 1980, dated 1981).

How the values were obtained:
[1] = test system: rat spontanément hypertendu anesthésié; assay: Antihypertensive effect in anaesthetised spontaneously hypertensive rats, carotid arterial pressure after i.v. injection; assay type: in vivo
Method: Les essais in vivo ont été effectués chez des rats mâles (S.H.R. - I.F.F.A.) conformément au protocole résumé ci-après :
Après anesthésie au pentobarbital, on a disposé un cathéter au niveau de l'artère carotide pour enregistrer la pression artérielle, et un cathéter au niveau d'une veine jugulaire pour permettre les injections des composés de l'invention mis en solution dans 0,5 ml de PEG 200 (polyéthylène glycol). La durée de l'injection était de 1 minute.

[2] = Acute oral toxicity in mice; settings: mouse, in vivo, voie orale, souris, read-out: toxicité aiguë
Method: Ces résultats montrent en particulier le grand intérêt du composé n° 2 qui présente un antagonisme très sélectif du type dualiste vis-à-vis des récepteurs β adrénergiques et fait preuve d'une remarquable activité in vivo chez le rat spontanément hypertendu anesthésié. Il a d'autre part été possible d'évaluer à 120 mg.kg-^1 la toxicité aiguë du composé n° 2 par voie orale chez la souris.

[3] = test system: Récepteurs adrénergiques α; assay: Interference with the contraction of isolated rat vas deferens caused by cumulative doses of noradrenaline
Excerpt: (§1) L'activité pharmacologique des composés de l'invention a été révélée par recherche d'une interférence avec les récepteurs adrénergiques β1, β2 et α in vitro, et confirmée in vivo par les effets antihypertenseurs observés après administration desdits composés chez le rat spontanément hypertendu anesthésié.
(§2) Les essais effectués in vitro correspondent aux protocoles résumés ci-après : • - Récepteurs adrénergiques β1 : on recherche l'antagonisme de l'effet inotrope positif de l'isopré- naline sur les récepteurs β1 de l'oreillette gauche de cobaye stimulée électriquement. • - Récepteurs adrénergiques 6 2 : on recherche l'antagonisme des effets bronchodilatateurs de l'iso- prénaline sur les récepteurs β2 du muscle trachéal de cobaye. • - Récepteurs adrénergiques α : on étudie l'interférence des composés de l'invention sur la contraction du vas déferens isolé du rat, provoquée par des doses cumulatives de noradrénaline.
(§3) Les résultats exprimés par les paramètres usuels de pharmacologie moléculaire, selon les critères utilisés par Van Rossum [Arch. Int.

récepteurs β2 = target: T1, récepteurs β2 (Cavia porcellus, UniProt Q8K4Z4); assay: Antagonism of the bronchodilator effects of isoprenaline on guinea pig tracheal muscle; parameters: species or system cobaye
T1 construct: sur les récepteurs β2 du muscle trachéal de cobaye; from tissue; host or cells: guinea pig tracheal muscle
T1 sequence (Q8K4Z4 whole entry): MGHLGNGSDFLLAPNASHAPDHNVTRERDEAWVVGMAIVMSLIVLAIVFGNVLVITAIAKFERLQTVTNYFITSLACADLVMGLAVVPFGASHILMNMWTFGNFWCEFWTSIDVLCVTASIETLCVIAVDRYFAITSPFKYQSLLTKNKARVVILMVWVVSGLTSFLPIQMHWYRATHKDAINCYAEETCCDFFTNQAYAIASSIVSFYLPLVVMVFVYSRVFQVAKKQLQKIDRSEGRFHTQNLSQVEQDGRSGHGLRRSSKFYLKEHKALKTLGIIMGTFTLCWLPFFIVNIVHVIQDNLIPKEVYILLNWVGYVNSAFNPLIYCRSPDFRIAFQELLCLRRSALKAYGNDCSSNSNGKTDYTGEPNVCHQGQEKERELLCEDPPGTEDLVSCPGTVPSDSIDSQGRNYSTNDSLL
Excerpt: as §1, §2, §3

récepteurs β1 = target: T2, récepteurs β1 (Cavia porcellus, UniProt H0W3H1); assay: Antagonism of the positive inotropic effect of isoprenaline on electrically stimulated guinea pig left atrium; parameters: species or system cobaye
T2 construct: sur les récepteurs β1 de l'oreillette gauche de cobaye stimulée électriquement; from tissue; host or cells: isolated guinea pig left atrium, electrically stimulated
T2 sequence (H0W3H1 1-470): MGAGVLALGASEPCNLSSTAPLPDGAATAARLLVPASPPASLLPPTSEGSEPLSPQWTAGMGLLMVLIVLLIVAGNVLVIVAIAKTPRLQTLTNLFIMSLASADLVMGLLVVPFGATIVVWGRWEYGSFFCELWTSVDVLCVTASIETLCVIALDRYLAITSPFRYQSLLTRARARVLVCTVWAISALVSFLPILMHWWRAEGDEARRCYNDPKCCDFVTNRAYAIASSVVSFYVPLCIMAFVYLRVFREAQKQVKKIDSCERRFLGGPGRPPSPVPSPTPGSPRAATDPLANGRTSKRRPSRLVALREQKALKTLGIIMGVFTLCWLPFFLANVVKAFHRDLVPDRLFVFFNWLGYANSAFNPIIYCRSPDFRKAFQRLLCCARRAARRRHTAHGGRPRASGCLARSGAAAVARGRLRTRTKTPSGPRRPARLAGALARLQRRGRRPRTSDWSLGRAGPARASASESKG
Excerpt: as §1, §2, §3

Row | action sur les récepteurs β1 (récepteurs β1; 10^-4 M/1) | SMILES | durée de l'effet antihypertenseur ([1]; dose 2,5 mg.kg^-1, jugular vein injection in PEG 200, male SHR rats under pentobarbital) [min] | LD50 [2] [mg/kg] | potentialisation des effets de la noradrénaline ([3]; dose 10^-4 M/1) [%] | Récepteurs β2 (récepteurs β2) | pD'2 (récepteurs β1; Récepteurs β1, guinea pig left atrium, isoprenaline, Van Rossum criteria) | Kb (récepteurs β1; Récepteurs β1, guinea pig left atrium, isoprenaline, Van Rossum criteria, read-out: pA2 (converted)) [nM] | durée de l'effet antihypertenseur ([1]; dose 20 mg.kg^-1, jugular vein injection in PEG 200, male SHR rats under pentobarbital) [min] | Récepteurs α ([3]; noradrenaline)
1 |  | COc1ccccc1N1CCN(CC(O)C2=COc3ccccc3O2)CC1 (stereo not shown) [exemple 2, 2-méthanolα-[4-(2-methoxyphenyl)piperazinyl-1] methyl benzo (1,4) dioxine] | > 45 | 120 | 180 | inactif | 4,84 | 912 |  | 
2 | très faiblement compétitive | OC(CN1CCN(c2cccc(C(F)(F)F)c2)CC1)C1=COc2ccccc2O1 (stereo not shown) [exemple 1, 2-méthanoloα-[4-(3-trifluoromethylphenyl)piperazinyl-1] methyl benzo (1,4) dioxine] |  |  |  | inactif |  |  | 20 | inactif
